According to ChEMBL document CHEMBL3885861, “Open TG-GATES”:

Species on record: Rattus norvegicus
Assay: Open TG-GATES - Regimen: Daily Repeat
Type: toxicity, organism-based, Sprague-Dawley
Design: regimen Daily Repeat, gender Male, age 6 weeks
Details: in vivo, po, 100 mg/kg, route gavage, dose level Low; for APTT / Bas / Eos / Fbg / Hb / Ht / Lym / MCH / MCHC / MCV / Mono / Neu / PT / Plat / RBC / Ret / WBC: tissue Blood
[1] = 72 h, tissue Kidney, time 3 day
[2] = 72 h, tissue Plasma, time 3 day

For CC(=O)[C@@]1(O)CC[C@H]2[C@@H]3C=C(Cl)C4=CC(=O)CC[C@]4(C)[C@H]3CC[C@@]21C [CHLORMADINONE], the TERMINAL_BW (72 h, time 3 day) was 229.4 g, the APTT (72 h, time 3 day) was 26.3 s and the Bas (72 h, time 3 day) was 0%. It also gave an Eos (72 h, time 3 day) of 1%, a Fbg (72 h, time 3 day) of 311.6 mg/dL and a Hb (72 h, time 3 day) of 14.1 g/dL. The Ht (72 h, time 3 day) was 42.6%, the Lym (72 h, time 3 day) was 80.4% and the MCH (72 h, time 3 day) was 20.1 pg. The MCHC (72 h, time 3 day) was 33.1%, the MCV (72 h, time 3 day) was 60.6 fL and the Mono (72 h, time 3 day) was 2.4%. The Neu (72 h, time 3 day) was 15.6%, the PT (72 h, time 3 day) was 15.3 s and the Plat (72 h, time 3 day) was 122.1 x10_4/uL. For the same molecule, the RBC (72 h, time 3 day) was 702.6 x10_4/ul, the Ret (72 h, time 3 day) was 5.8% and the WBC (72 h, time 3 day) was 113 x10_2/uL. For the same molecule, the KIDNEY_L [1] was 1 g, the KIDNEY_R [1] was 1 g and the KIDNEY_TOTAL [1] was 2 g. For the same molecule, the LIVER (72 h, tissue Liver, time 3 day) was 10.5 g, the A/G [2] was 1.3 and the ALP [2] was 1589 IU/L. The ALT [2] was 54 IU/L, the AST [2] was 72.8 IU/L and the BUN [2] was 15.8 mg/dL. The CRE [2] was 0.2 mg/dL, the Ca [2] was 10.7 mg/dL and the Cl [2] was 106.2 meq/L. The DBIL [2] was 0 mg/dL, the GLC [2] was 192.4 mg/dL and the IP [2] was 7.4 mg/dL. It also gave a K [2] of 4.5 meq/L, an LDH [2] of 171.4 IU/L and a Na [2] of 141.6 meq/L. It also gave a PL [2] of 160.2 mg/dL, an RALB [2] of 3.1 g/dL and a TBIL [2] of 0.006 mg/dL. The TC [2] was 74 mg/dL, the TG [2] was 129.4 mg/dL and the TP [2] was 5.5 g/dL. The gamma-GTP [2] was 1.6 IU/L, the TERMINAL_BW ([…], time 7 day) was 252.1 g and the TERMINAL_BW ([…], time 14 day) was 293.5 g. The TERMINAL_BW ([…], time 28 day) was 362.8 g, the APTT ([…], time 7 day) was 27.7 s and the Bas ([…], time 7 day) was 0%. For the same molecule, the Eos ([…], time 7 day) was 1%, the Fbg ([…], time 7 day) was 343.2 mg/dL and the Hb ([…], time 7 day) was 14.5 g/dL. It also gave a Ht ([…], time 7 day) of 43.2%, a Lym ([…], time 7 day) of 84% and an MCH ([…], time 7 day) of 20.2 pg. It also gave an MCHC ([…], time 7 day) of 33.6%, an MCV ([…], time 7 day) of 60.1 fL and a Mono ([…], time 7 day) of 2.2%. It also gave a Neu ([…], time 7 day) of 12%, a PT ([…], time 7 day) of 15.2 s and a Plat ([…], time 7 day) of 133.1 x10_4/uL. For the same molecule, the RBC ([…], time 7 day) was 720.2 x10_4/ul, the Ret ([…], time 7 day) was 4.2% and the WBC ([…], time 7 day) was 118.1 x10_2/uL. It also gave an APTT ([…], time 14 day) of 27.9 s, a Bas ([…], time 14 day) of 0% and an Eos ([…], time 14 day) of 0.8%. For the same molecule, the Fbg ([…], time 14 day) was 327.6 mg/dL, the Hb ([…], time 14 day) was 14.8 g/dL and the Ht ([…], time 14 day) was 43.9%. For the same molecule, the Lym ([…], time 14 day) was 82%, the MCH ([…], time 14 day) was 19.5 pg and the MCHC ([…], time 14 day) was 33.8%. It also gave an MCV ([…], time 14 day) of 57.6 fL, a Mono ([…], time 14 day) of 2% and a Neu ([…], time 14 day) of 14.6%. It also gave a PT ([…], time 14 day) of 15.2 s, a Plat ([…], time 14 day) of 103.8 x10_4/uL and an RBC ([…], time 14 day) of 762.8 x10_4/ul. For the same molecule, the Ret ([…], time 14 day) was 3.6%, the WBC ([…], time 14 day) was 100.2 x10_2/uL and the APTT ([…], time 28 day) was 27.1 s. It also gave a Bas ([…], time 28 day) of 0%, an Eos ([…], time 28 day) of 1% and a Fbg ([…], time 28 day) of 303.4 mg/dL. For the same molecule, the Hb ([…], time 28 day) was 15.5 g/dL and the Ht ([…], time 28 day) was 45.1%.
